From patent US9376418B2, “Substituted pyridine spleen tyrosine kinase (SYK) inhibitors” (Merck Sharp & Dohme Corp., priority 2012, dated 2016)
pIC50: −log10 of the molar value. Read-outs that look alike come from different tables or passages of the source.

Molecular target: T1, recombinant human GST-SYK (Homo sapiens, UniProt P43405)
T1 construct: purchased Carna Biosciences 08-176
Test: Homogeneous Time-Resolved Fluorescence (HTRF) assay for the recombinant human Syk enzyme
Type: biochemical
Protocol: Homogeneous Time-Resolved Fluorescence (HTRF) Assay for the Recombinant Human Syk Enzyme
A recombinant GST-hSYK fusion protein was used to measure potency of compounds to inhibit human Syk activity. The recombinant human GST-SYK (Carna Biosciences #08-176) ([…]) was incubated with various concentrations of the inhibitor diluted in DMSO (0.1% final concentration) for 10 minutes at room temperature in 15 mM Tris-HCl (pH 7.5), 0.01% tween 20, 2 mM DTT in 384 well plate format. To initiate the reaction the biotinylated substrate peptide (250 nM final concentration) that contains the phosphorylation site for Syk was added with magnesium (5 mM final concentration) and ATP (25 μM final concentration). Final volume of the reaction was 10 μL. Phosphorylation of the peptide was allowed to proceed for 45′ at room temperature. To quench the reaction and detect the phosphorylated product, 2 nM of a Europium-anti-phosphotyrosine antibody (Perkin Elmer #AD0161) and 70 nM SA-APC (Perkin-Elmer #CR130-100) were added together in 15 mM Tris pH 7.5, 40 mM EDTA, 0.01% tween 20. Final volume of the quenching solution was 10 μL. The resulting HTRF signal was measured after 30 minutes on an EnVision (Perkin-Elmer) reader using a time-resolved fluorescence protocol.

[1] = HTRF assay, recombinant human GST-SYK, IC50 given as class symbols, read-out: rhSYK Activity

pIC50 [1] | pIC50 (recombinant GST-hSYK, 25 μM ATP, HTRF, read-out: IC50 (inhibition of human Syk activity)) | SMILES
6.00 to 7.00 |  | CCCCOC(=O)C1CCC(C(C)(O)c2ccc(-c3cc(C)cc(Nc4nccc(C(F)(F)F)n4)c3)cn2)CC1 (single isomer, unassigned) [Example 9.52, butyl trans-4-{(1R or 1S)-1-hydroxy-1-[5-(3-methyl-5-{[4-(trifluoromethyl)pyrimidin-2-yl]amino}phenyl)pyridin-2-yl]ethyl}cyclohexanecarboxylate]
6.00 to 7.00 |  | CCCCOC(=O)C1CCC(C(C)(O)c2ccc(-c3cc(C)cc(Nc4ncc(Cl)c(C)n4)c3)cn2)CC1 (single isomer, unassigned) [Example 9.53, butyl trans-4-[(1R or 1S)-1-(5-{3-[(5-chloro-4-methylpyrimidin-2-yl)amino]-5-methylphenyl}pyridin-2-yl)-1-hydroxyethyl]cyclohexanecarboxylate]
> 7.00 |  | Cc1cc(Nc2nccc(C(F)(F)F)n2)cc(-c2ccnc(C3(O)CCC(C(=O)O)C(C)(C)C3)c2)c1 (single isomer, unassigned) [Example 9.59, (1S,4R or 1R,4S)-4-hydroxy-2,2-dimethyl-4-[4-(3-methyl-5-{[4-(trifluoromethyl)pyrimidin-2-yl]amino}phenyl)pyridin-2-yl]cyclohexanecarboxylic acid]
> 7.00 |  | Cc1cc(Nc2ncc(Cl)c(C)n2)cc(-c2ccc(C(C)(O)C3CCC(C(=O)O)CC3)nc2)c1 (single isomer, unassigned) [Example 9.82, trans-4-[(1R or 1S)-1-(5-{3-[(5-chloro-4-methylpyrimidin-2-yl)amino]-5-methylphenyl}pyridin-2-yl)-1-hydroxyethyl]cyclohexanecarboxylic acid]
> 7.00 |  | Cc1cc(Nc2ncc(F)c(C)n2)cc(-c2ccc(C(C)(O)C3CCC(C(=O)O)CC3)nc2)c1 (single isomer, unassigned) [Example 9.83, trans-4-[(1R or 1S)-1-(5-{3-[(5-fluoro-4-methylpyrimidin-2-yl)amino]-5-methylphenyl}pyridin-2-yl)-1-hydroxyethyl]cyclohexanecarboxylic acid]
6.00 to 7.00 | 6.84 | OC1(c2cccc(-c3cc(Nc4nccc(C(F)(F)F)n4)cc(N4CCOCC4)c3)n2)CCC1 [Example 1.1, 1-{6-[3-(Morpholin-4-yl)-5-{[4-(trifluoromethyl)pyrimidin-2-yl]amino}phenyl]pyridin-2-yl}cyclobutanol]
> 7.00 |  | FC(F)(F)c1ccnc(Nc2cc(-c3ccccn3)cc(N3CCOCC3)c2)n1 [Example 1.2, N-(3-morpholin-4-yl-5-pyridin-2-ylphenyl)-4-(trifluoromethyl)pyrimidin-2-amine]
> 7.00 |  | FC(F)(F)c1ccnc(Nc2cc(-c3cccc(N4CCOCC4)n3)cc(N3CCOCC3)c2)n1 [Example 1.3, N-[3-morpholin-4-yl-5-(6-morpholin-4-ylpyridin-2-yl)phenyl]-4-(trifluoromethyl)pyrimidin-2-amine]
6.00 to 7.00 |  | OCCN(CCO)c1cccc(-c2cc(Nc3nccc(C(F)(F)F)n3)cc(N3CCOCC3)c2)n1 [Example 1.4, 2,2′-{[6-(3-morpholin-4-yl-5-{[4-(trifluoromethyl)pyrimidin-2-yl]amino}phenyl)pyridin-2-yl]imino}diethanol]
> 7.00 |  | Cc1cc(Nc2nccc(C(F)(F)F)n2)cc(-c2ccc(C(=O)O)nc2)c1 [Example 2.1, 5-(3-Methyl-5-{[4-(trifluoromethyl)pyrimidin-2-yl]amino}phenyl)pyridine-2-carboxylic acid]
> 7.00 |  | COc1ccnc(Nc2cc(C)cc(-c3cccc(CCC(=O)O)n3)c2)n1 [Example 2.2]
5.00 to 6.00 |  | COc1cccc(-c2cccc(Nc3nccc(C(F)(F)F)n3)c2)n1 [Example 2.3, N-[3-(6-methoxypyridin-2-yl)phenyl]-4-(trifluoromethyl)pyrimidin-2-amine]
6.00 to 7.00 |  | CCC(O)(CC)c1cccc(-c2cccc(Nc3nccc(C(F)(F)F)n3)c2)n1 [Example 2.4, 3-[6-(3-{[4-(trifluoromethyl)pyrimidin-2-yl]amino}phenyl)pyridin-2-yl]pentan-3-ol]
